Laboratory results published in PMC12114375, “Discovery of Hydrazineyl Amide Derivative of Pseudolaric Acid B for Reprogramming Tumor-Associated Macrophages Against Tumor Growth” (Molecules, 2025).
Read-outs that look alike come from different tables or passages of the source.

Tests used:
[1] = In vivo pharmacokinetic study in mice; set-up: species or system ICR mice; details: 1 mg/kg i.v., mean ± SD
Protocol: To investigate the druggability of compound 12, the pharmacokinetic (PK) properties of 12 were examined in mice. The mice were treated with 12 intravenously (i.v.) at a dose of 1 mg/kg, and the resulting PK parameters were recorded.
ICR mice (n = 3) were administered with the test compound via intravenous injection at 1 mg/kg. Blood samples were collected 0.083, 0.25, 0.5, 1, 2, 4, 8, and 24 h after administration. An aliquot of 10 μL of the plasma sample was deproteinized with 200 μL of a MeOH: ACN = 1: 1 solution containing an internal standard. After centrifugation, the supernatant was injected for LC–MS/MS analysis. A standard set of parameters, including the area under the curve (AUC0–∞), elimination half-life (T1/2), time to reach the maximum plasma concentration (Tmax), maximum plasma concentration (Cmax), plasma clearance (Cl), and mean residence time (MRT), were calculated using WinNonlin software.

[2] = tested on: NOS2 mRNA expression in RAW 264.7 cells; experiment: qRT-PCR of NOS2 mRNA in IL-4/IL-13-stimulated RAW 264.7 cells; format: cell-based, mouse; details: Mus musculus, RAW264.7, IL-4/IL-13 (20 ng/mL) plus compound 10 μM, 12 h, stimulated control = 100%, mean ± SD, read-out: NOS2 mRNA Relative Expression (%)
Source text: We first investigated the impacts of a series of commercially available natural pseudolaric acids or their O-pyranosides (Figure 1) on the pro-tumoral phenotype of TAMs, which play a critical role in anti-tumor immune response modulation. […] In contrast, M1-biased macrophages combat tumor growth and bacterial infections by expressing inducible nitric oxide synthase 2 (NOS2), which catalyzes the production of nitric oxide (NO). Recognizing the pivotal roles of ARG1 and NOS2, we utilized these molecules as key biomarkers and effectors for assessing macrophage immune function. In our experiments, the mouse monocyte–macrophage leukemia cell line RAW 264.7 was induced with IL-4/IL-13 to acquire an M2-like pro-tumoral phenotype. Concurrently, the cells were treated with the pseudolaric acid-related natural products 1–7 at a concentration of 10 μM for 12 h. Additionally, PLX3397 was used as a positive control at a concentration of 0.5 μM. […] As shown in Table 1 and Figure S1A, pseudolaric acid B (1), its deacetoxyl analogue 2 (pseudolaric acid C), and β-D-glucoside 7 substantially attenuated the upregulation of ARG1 mRNA expression induced by IL-4/IL-13, with statistically significant effects. In contrast, bis-carboxylic acids analogs 4 (pseudolaric acid C2) and 6 (demethoxydeacetoxypseudolaric acid B) have no significant impact on ARG1 mRNA expression.
With these carboxylic acid-modified derivatives in hand, we investigated their impact at 10 μM on ARG1 and NOS2 mRNA expression in RAW 264.7 cells pre-stimulated with IL-4/IL-13 to evaluate the effects on the pro-tumor phenotype of macrophages. […] Further removal of one hydroxyl from the glycerol moiety 15 further enhanced the inhibitory effect on ARG1 expression but had no significant impact on NOS2 expression.
Total RNA was isolated from cells using the EZ-press RNA Purification Kit (EZBioscience, Suzhou, China) and subjected to reverse transcription with the 5×HiScript II qRT SuperMix II (Vazyme, Nanjing, China). PCR was performed with the 2×ChamQ Universal SYBR qPCR Master Mix (Vazyme, Nanjing, China). All primers for qRT-PCR are described in Table S1. The 2^−∆∆Ct method was utilized to calculate the fold change in gene expression, with the expression levels in the stimulated group set as the baseline for normalization.

[3] = tested on: ARG1, NOS2, CD206 and MHC II mRNA expression in BMDMs; experiment: qRT-PCR of ARG1, NOS2, CD206, MHC II in BMDMs; format: cell-based, mouse; details: BMDMs stimulated with IL-4/IL-13, different concentrations, 12 h
Protocol: We also extended the test to primary murine macrophages derived from bone marrow (BMDMs), which were cultured in vitro with recombinant mouse M-CSF for 6 days. The BMDMs were then stimulated with IL-4/IL-13, leading to their transformation into M2-like pro-tumoral macrophages. This transformation was characterized by an increase in both ARG1 and CD206 expression and a decrease in both NOS2 and MHC II expression. […] Subsequently, we assessed the capacity of compound 12 to inhibit the M2-like polarization of macrophages using CSF-1-differentiated mouse BMDMs. These cells were treated with IL-4 and IL-13 for 48 h, and the expression levels of CD206, an M2-type marker, and CD86, an M1-type marker, were analyzed via flow cytometry. […]
Figure 2 Compound 12 inhibits the M2-like polarized phenotype of macrophages. […] The expression levels of the markers CD206 and CD86 on induced macrophages were determined by flow cytometry, and the mean fluorescence intensity (MFI) was analyzed with FlowJo (C), or the cells were lysed and immunoblotted to detect the indicated proteins (D). […] Data are represented as means ± SD. ^### p < 0.001 vs. non-stimulated control group, * p < 0.05, ** p < 0.01, *** p < 0.001 vs. stimulated control group. p-values were determined using one-way ANOVA.

## COC(=O)C1=CC[C@@]23CC[C@@H]([C@@](C)(/C=C/C=C(\C)C(=O)NNCCO)OC2=O)[C@@]3(OC(C)=O)CC1 [compound 12, Methyl(3R,4S,4aS,9aR)-4a-acetoxy-3-((1E,3E)-5-(2-(2-hydroxyethyl)hydrazineyl)-4-methyl-5-oxopenta-1,3-dien-1-yl)-3-methyl-1-oxo-3,4,4a,5,6,9-hexahydro-1H-4,9a-ethanocyclohepta[c]pyran-7-carboxylate]
[1]; n = 3, 1 mg/kg
  Tmax: 5 ± 0 min
[1]; ICR, mouse, plasma, iv, n = 3
  AUC(0-inf): 363 ± 29.4 ng·h/mL
  Cmax: 32.1 ± 11.7 ng/mL
  clearance: 46.1 mL/min/kg
  half-life: 2410 ± 413 min
[1]; ICR, mouse, plasma, iv, n = 3, read-out: MRT0–∞
  MRT inf: 63.1 ± 7.96 h
[1]; ICR, mouse, plasma, iv, 1 mg/kg, n = 3, read-out: Tmax
  Tmax: 4.98 min
[2]
  activity at 10 µM: 182 ± 5.3%
[3]
  IL-4/IL-13-induced increase in ARG1 and CD206 and decrease in NOS2 and MHC II expression: significantly reversed these trends
